The values that follow come from patent publication US20250213579A1, “COMBINATION THERAPIES” (MIRATI THERAPEUTICS, INC., priority 2018, published 2025).

Structures are written as SMILES. Read-outs that look alike come from different tables or passages of the source.

The subject of the experiment is H2122 cells. The following applies: H2122 tumors, nude/nude mice, Compound 478 100 mg/kg and/or Dasatinib 50 mg/kg p.o. daily.

Experimental: Immunocompromised nude/nude mice were inoculated in the right hind flank with cells or patient derived tumor samples harboring a KRas G12C mutation. When tumor volumes reached between 200-400 mm^3 in size, the mice were divided into four groups of 5-12 mice each. The first group was administered vehicle only. […] The fourth group was administered the single agent dose of the KRas G12C inhibitor in combination with the single agent dose of the Src-family kinase inhibitor. […] Tumor volumes were measured using a caliper every two-three days and tumor volumes were calculated by the formula: 0.5×(Length×Width)^2.
Tumor volumes were measured at pre-specified days set forth below.

As to `Cc1nc(Nc2ncc(C(=O)Nc3c(C)cccc3Cl)s2)cc(N2CCN(CCO)CC2)n1` [Dasatinib, N-(2-chloro-6-methylphenyl)-2-((6-(4-(2-hydroxyethyl)piperazin-1-yl)-2-methylpyrimidin-4-yl)amino)thiazole-5-carboxamide], the “Average Tumor Volumes” value is 324 mm^3 (Day 11 from inoculation (start of dosing)); 492 mm^3 (Day 13 from inoculation); 596 mm^3 (Day 15 from inoculation); 820 mm^3 (Day 18 from inoculation); 938 mm^3 (Day 20 from inoculation); 1086 mm^3 (Day 22 from inoculation). Moreover, the “Average Tumor Volumes” value (Day 25 from inoculation) came out at 1216 mm^3. For the setting “Day 20 (Treatment Day 9)”, this molecule came in with a tumor growth inhibition of 23.5%.
